Tested on: ECHCG
Assay: Post-emergence foliar-applied weed control, greenhouse (Example I)
Type: in vivo, Echinochloa crusgalli (L.) Beauv.
Description: Evaluation of Post-emergence Foliar-Applied Herbicidal Mixtures for Weed Control in Direct Seeded Rice
Seeds or nutlets of the desired test plant species were planted in a soil matrix prepared by mixing a loam or sandy loam soil (e.g., 28.6 percent silt, 18.8 percent clay, and 52.6 percent sand, with a pH of about 5.8 and an organic matter content of about 1.8 percent) and calcareous grit in an 80 to 20 ratio. The soil matrix was contained in plastic pots with a volume of 1 quart and a surface area of 83.6 square centimeters (cm^2). When required to ensure good germination and healthy plants, a fungicide treatment and/or other chemical or physical treatment was applied. The plants were grown for 8-22 days in a greenhouse with an approximate 14 h photoperiod which was maintained at about 29° C. during the day and 26° C. during the night. Nutrients (Peters Excel® 15-5-15 5-Ca 2-Mg and iron chelate) were applied in the irrigation solution as needed and water was added on a regular basis. Supplemental lighting was provided with overhead metal halide 1000-Watt lamps as necessary. The plants were employed for testing when they reached the first through fourth true leaf stage.
Treatments consisted of the acid or esters of 4-amino-3-chloro-5-fluoro-6-(4-chloro-2-fluoro-3-methoxy-phenyl)pyridine-2-carboxylic acid (Compound A), each formulated as an SC (suspension concentrate), and various herbicidal components alone and in combination. Forms of Compound A were applied on an acid equivalent basis.
Other herbicidal components were applied on an active ingredient basis and included 4-hydroxyphenyl pyruvate dioxygenase (HPPD)-inhibiting herbicides mesotrione formulated as Callisto®, sulcotrione formulated as Mikado®, pyrazolynate formulated as Sunbird® 10% GR, and benzobicyclon formulated as Benzobicyclon 3.5%.
Treatment requirements were calculated based upon the rates being tested, the concentration of active ingredient or acid equivalent in the formulation, and a 12 mL application volume at a rate of 187 L/ha.
For treatments comprised of formulated compounds, measured amounts of compounds were placed individually in 25 mL glass vials and diluted in a volume of 1.25% (v/v) Agri-Dex® crop oil concentrated to obtain 12× stock solutions. […] Application solutions were prepared by adding an appropriate amount of each stock solution (e.g., 1 mL) and diluted to the appropriate final concentrations with the addition of 10 mL of an aqueous mixture of 1.25% (v/v) crop oil concentrate so that the final spray solutions contained 1.25+/−0.05% (v/v) crop oil concentrate.
For treatments comprised of formulated and technical compounds, weighed amounts of the technical materials were placed individually in 25 mL glass vials and dissolved in a volume of 97:3 v/v acetone/DMSO to obtain 12× stock solutions, and measured amounts of the formulated compounds were placed individually in 25 mL glass vials and diluted in a volume of 1.5% (v/v) crop oil concentrate or water to obtain 12× stock solutions. […] Application solutions were prepared by adding an appropriate amount of each stock solution (e.g., 1 mL) and diluted to the appropriate final concentrations with the addition of an appropriate amount of an aqueous mixture of 1.5% (v/v) crop oil concentrate so that the final spray solutions contained 1.25% (v/v) crop oil concentrate. As required, additional water and/or 97:3 v/v acetone/DMSO was added to individual application solutions so that the final acetone and DMSO concentrations of the application solutions being compared were 8.1% and 0.25%, respectively.
All stock solutions and applications solutions were visually inspected for compound compatibility prior to application. Spray solutions were applied to the plant material with an overhead Mandel track sprayer equipped with a 8002E nozzles calibrated to deliver 187 L/ha over an application area of 0.503 m^2 at a spray height of 18 to 20 inches (46 to 50 cm) above average plant canopy height. […]

| SMILES | Visual Weed Control (%) - 20 DAA ECHCG Obs (4.38 gae/ha) [%] | Visual Weed Control (%) - 22 DAA ECHCG Obs (5.3 gae/ha) [%] | Visual Weed Control (%) - 20 DAA ECHCG Obs (8.75 gae/ha) [%] | Visual Weed Control (%) - 22 DAA ECHCG Obs (10.6 gae/ha) [%] | Visual Weed Control (%) - 22 DAA ECHCG Obs (4.38 gae/ha) [%] | Visual Weed Control (%) - 22 DAA ECHCG Obs (8 gae/ha) [%] | Visual Weed Control (%) - 22 DAA ECHCG Obs (8.75 gae/ha) [%] | Visual Weed Control (%) - 22 DAA ECHCG Obs (16 gae/ha) [%] | Visual Weed Control (%) - 22 DAA ECHCG Obs (32 gae/ha) [%] |
| --- | --- | --- | --- | --- | --- | --- | --- | --- | --- |
| COc1c(Cl)ccc(-c2nc(C(=O)O)c(Cl)c(N)c2F)c1F [Compound A Acid, 4-amino-3-chloro-6-(4-chloro-2-fluoro-3-methoxyphenyl)-5-fluoropyridine-2-carboxylic acid] | 25 | 65 | 80 | 55 |  |  |  |  |  |
| COc1c(Cl)ccc(-c2nc(C(=O)OCc3ccccc3)c(Cl)c(N)c2F)c1F [Compound A Benzyl Ester, benzyl ester of 4-amino-3-chloro-5-fluoro-6-(4-chloro-2-fluoro-3-methoxy-phenyl)pyridine-2-carboxylic acid] | 40 |  |  |  | 40 | 35 | 60 | 65 | 80 |

From US8841233B2, “Herbicidal compositions comprising 4-amino-3-chloro-5-fluoro-6-(4-chloro-2-fluoro-3-methoxyphenyl) pyridine-2-carboxylic acid or a derivative thereof and 4-hydroxyphenyl-pyruvate dioxygenase (HPPD) inhibitors” (Dow Agrosciences LLC, priority 2012, dated 2014)
